In US20230085307A1, “PYRIDAZINONE COMPOUND AND HERBICIDE” (NISSAN CHEMICAL CORPORATION, priority 2019, published 2023):

Legend:
[1] = tested on: barnyard grass; assay: Test Example 3: herbicidal effect by foliage application, Wagner pot (Table 18, symbol H); assay type: in vivo, barnyard grass (Echinochloa crus-galli)
Procedure, shortened: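 Plants were sown in alluvial soil held under 0.1–0.5 cm standing water and grown 14 days in a greenhouse at 25–30 °C. An emulsifiable formulation, water-diluted to the set dose, was then sprayed onto the foliage, and effects were scored three weeks later using previously defined criteria.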

[2] = tested on: persian speedwell; assay: Test Example 4: herbicidal effect by soil treatment (Table 19, symbol R); assay type: in vivo, Persian speedwell (Veronica persica)
Procedure, shortened: (§1)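 Seeds were sown in sterilized diluvial soil and covered with about 1.5 cm of soil. An emulsion formulation diluted with water to a predetermined herbicide amount was sprayed evenly onto the soil surface. Plants grew in a greenhouse at 25° C. to 30° C., and the effect was scored three weeks after application using criteria from an earlier test.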

[3] = tested on: velvetleaf; assay: Test Example 4: herbicidal effect by soil treatment (Table 19, symbol M); assay type: in vivo, velvetleaf (Abutilon theophrasti)
Procedure, shortened: as §1

[4] = tested on: false cleavers; assay: Test Example 4: herbicidal effect by soil treatment (Table 19, symbol Q); assay type: in vivo, false cleavers (Galium spurium)
Procedure, shortened: as §1

[5] = tested on: barnyard grass; assay: Test Example 5: herbicidal effect by foliage application, plastic box (Table 20, symbol H); assay type: in vivo, barnyard grass (Echinochloa crus-galli); conditions: foliage application, three weeks after application
Procedure, shortened: (§2)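 Plants sown in sterilized diluvial soil and grown 14 days in a greenhouse at 25° C to 30° C, then sprayed on the foliage with the compound's emulsion diluted in water to a predetermined herbicide amount. Injury to weeds and crops scored three weeks after application on a visual rating scale.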

[6] = tested on: oval-leafed pondweed; assay: Test Example 2: herbicidal activity, application during weed generation under submerged conditions (Table 17, symbol C); assay type: in vivo, oval-leafed pondweed (Monochoria vaginalis); conditions: application during weed generation, submerged conditions
Procedure, shortened: (§3)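 Alluvial soil in Wagner pots was flooded to 4 cm depth and sown with the three weeds together; pots were kept in a greenhouse at 25° C. to 30° C. At the one to two leaf stage, an emulsion formulation diluted in water to a set rate went onto the water surface; scored three weeks later.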

[7] = tested on: blackgrass; assay: Test Example 5: herbicidal effect by foliage application, plastic box (Table 20, symbol J); assay type: in vivo, blackgrass (Alopecurus myosuroides); conditions: foliage application, three weeks after application
Procedure, shortened: as §2

[8] = tested on: blackgrass; assay: Test Example 4: herbicidal effect by soil treatment (Table 19, symbol J); assay type: in vivo, blackgrass (Alopecurus myosuroides)
Procedure, shortened: as §1

[9] = tested on: lambsquarters; assay: Test Example 4: herbicidal effect by soil treatment (Table 19, symbol O); assay type: in vivo, lambsquarters (Chenopodium album)
Procedure, shortened: as §1

[10] = tested on: late watergrass; assay: Test Example 1: herbicidal activity, application before weed generation under submerged conditions (Table 16, symbol A); assay type: in vivo, late watergrass (Echinochloa oryzicola)
Procedure, shortened: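 Submerged Wagner pots (alluvial soil, 4 cm water) sown with weed seeds and planted with 2.5-leaf rice seedlings; emulsifiable concentrate diluted in water applied to water surface on sowing day. Held in greenhouse at 25-30 °C; injury scored 0-5 by herbicidal rate after three weeks.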

[11] = tested on: chickweed; assay: Test Example 5: herbicidal effect by foliage application, plastic box (Table 20, symbol P); assay type: in vivo, common chickweed (Stellaria media); conditions: foliage application, three weeks after application
Procedure, shortened: as §2

[12] = tested on: Italian ryegrass; assay: Test Example 5: herbicidal effect by foliage application, plastic box (Table 20, symbol K); assay type: in vivo, Italian ryegrass (Lolium multiflorum); conditions: foliage application, three weeks after application
Procedure, shortened: as §2

[13] = tested on: barnyard grass; assay: Test Example 4: herbicidal effect by soil treatment (Table 19, symbol H); assay type: in vivo, barnyard grass (Echinochloa crus-galli)
Procedure, shortened: as §1

[14] = tested on: green foxtail; assay: Test Example 5: herbicidal effect by foliage application, plastic box (Table 20, symbol G); assay type: in vivo, green foxtail (Setaria viridis); conditions: foliage application, three weeks after application
Procedure, shortened: as §2

[15] = tested on: late watergrass; assay: Test Example 2: herbicidal activity, application during weed generation under submerged conditions (Table 17, symbol A); assay type: in vivo, late watergrass (Echinochloa oryzicola); conditions: application during weed generation, submerged conditions
Procedure, shortened: as §3

[16] = tested on: velvetleaf; assay: Test Example 5: herbicidal effect by foliage application, plastic box (Table 20, symbol M); assay type: in vivo, velvetleaf (Abutilon theophrasti); conditions: foliage application, three weeks after application
Procedure, shortened: as §2

[17] = tested on: southern crabgrass; assay: Test Example 4: herbicidal effect by soil treatment (Table 19, symbol F); assay type: in vivo, southern crabgrass (Digitaria ciliaris)
Procedure, shortened: as §1

[18] = amount of applied herbicide 80 g/ha
[19] = amount of applied herbicide 320 g/ha

SMILES	herbicidal effect on barnyard grass (H) ([1]; 320 g/ha)	R: persian speedwell, herbicidal effect grade [2, 19]	M: velvetleaf, herbicidal effect grade [3, 19]	Q: false cleavers, herbicidal effect grade [4, 19]	H: barnyard grass, herbicidal effect grade ([5]; 320 g/ha)	herbicidal effect rating, C: oval-leafed pondweed ([6]; AAH 320 g/ha)	J: blackgrass, herbicidal effect grade ([7]; 320 g/ha)	J: blackgrass, herbicidal effect grade [8, 19]	O: lambsquarters, herbicidal effect grade [9, 19]	Herbicidal effect, A: late watergrass [10, 19]	P: chickweed, herbicidal effect grade ([11]; 320 g/ha)	K: Italian ryegrass, herbicidal effect grade ([12]; 320 g/ha)	H: barnyard grass, herbicidal effect grade [13, 19]	G: green foxtail, herbicidal effect grade ([14]; 320 g/ha)	herbicidal effect rating, A: late watergrass ([15]; AAH 320 g/ha)	M: velvetleaf, herbicidal effect grade ([16]; 320 g/ha)	F: southern crabgrass, herbicidal effect grade [17, 19]	further results
CCOc1cc(F)ccc1-c1sc2cc(OC)ccc2c1-c1c(O)c(C)nn(C)c1=O [3-078]	–	–	–	–	–	–	–	–	–	–	–	–	–	–	–	–	–	herbicidal effect on barnyard grass (H) ([1]; 80 g/ha): 5 (Herbicidal rate of 90% or more (almost completely withered)); R: persian speedwell, herbicidal effect grade [2, 18]: 5 (Herbicidal rate of 90% or more (almost completely withered)); M: velvetleaf, herbicidal effect grade [3, 18]: 0 (Herbicidal rate of 5% or less (almost no effect)); Q: false cleavers, herbicidal effect grade [4, 18]: 5 (Herbicidal rate of 90% or more (almost completely withered)); H: barnyard grass, herbicidal effect grade ([5]; 80 g/ha): 5 (Herbicidal rate of 90% or more (almost completely withered)); herbicidal effect rating, C: oval-leafed pondweed ([6]; AAH 80 g/ha): 4 (Herbicidal rate of 70% or more and less than 90%); J: blackgrass, herbicidal effect grade ([7]; 80 g/ha): 4 (Herbicidal rate of 70% or more and less than 90%); J: blackgrass, herbicidal effect grade [8, 18]: 5 (Herbicidal rate of 90% or more (almost completely withered)); O: lambsquarters, herbicidal effect grade [9, 18]: 4 (Herbicidal rate of 70% or more and less than 90%); Herbicidal effect, A: late watergrass [10, 18]: 5 (Herbicidal rate of 90% or more (almost completely withered)); P: chickweed, herbicidal effect grade ([11]; 80 g/ha): 5 (Herbicidal rate of 90% or more (almost completely withered)); K: Italian ryegrass, herbicidal effect grade ([12]; 80 g/ha): 4 (Herbicidal rate of 70% or more and less than 90%); H: barnyard grass, herbicidal effect grade [13, 18]: 0 (Herbicidal rate of 5% or less (almost no effect)); G: green foxtail, herbicidal effect grade ([14]; 80 g/ha): 4 (Herbicidal rate of 70% or more and less than 90%); herbicidal effect rating, A: late watergrass ([15]; AAH 80 g/ha): 1 (Herbicidal rate of 5% or more and less than 20%); M: velvetleaf, herbicidal effect grade ([16]; 80 g/ha): 5 (Herbicidal rate of 90% or more (almost completely withered)); F: southern crabgrass, herbicidal effect grade [17, 18]: 4 (Herbicidal rate of 70% or more and less than 90%)
CCCC(=O)Oc1c(C)nn(C)c(=O)c1-c1c(-c2ccc(F)cc2OCC)sc2cc(OC)ccc12 [3-079]	5 (Herbicidal rate of 90% or more (almost completely withered))	5 (Herbicidal rate of 90% or more (almost completely withered))	3 (Herbicidal rate of 40% or more and less than 70%)	4 (Herbicidal rate of 70% or more and less than 90%)	5 (Herbicidal rate of 90% or more (almost completely withered))	5 (Herbicidal rate of 90% or more (almost completely withered))	4 (Herbicidal rate of 70% or more and less than 90%)	2 (Herbicidal rate of 20% or more and less than 40%)	3 (Herbicidal rate of 40% or more and less than 70%)	5 (Herbicidal rate of 90% or more (almost completely withered))	5 (Herbicidal rate of 90% or more (almost completely withered))	4 (Herbicidal rate of 70% or more and less than 90%)	0 (Herbicidal rate of 5% or less (almost no effect))	5 (Herbicidal rate of 90% or more (almost completely withered))	5 (Herbicidal rate of 90% or more (almost completely withered))	5 (Herbicidal rate of 90% or more (almost completely withered))	4 (Herbicidal rate of 70% or more and less than 90%)	–
COc1ccc2c(-c3c(O)c(C)nn(C)c3=O)c(-c3ccc4c(c3)OCCO4)sc2c1 [3-082]	5 (Herbicidal rate of 90% or more (almost completely withered))	5 (Herbicidal rate of 90% or more (almost completely withered))	0 (Herbicidal rate of 5% or less (almost no effect))	5 (Herbicidal rate of 90% or more (almost completely withered))	3 (Herbicidal rate of 40% or more and less than 70%)	3 (Herbicidal rate of 40% or more and less than 70%)	1 (Herbicidal rate of 5% or more and less than 20%)	0 (Herbicidal rate of 5% or less (almost no effect))	0 (Herbicidal rate of 5% or less (almost no effect))	3 (Herbicidal rate of 40% or more and less than 70%)	5 (Herbicidal rate of 90% or more (almost completely withered))	3 (Herbicidal rate of 40% or more and less than 70%)	0 (Herbicidal rate of 5% or less (almost no effect))	3 (Herbicidal rate of 40% or more and less than 70%)	2 (Herbicidal rate of 20% or more and less than 40%)	3 (Herbicidal rate of 40% or more and less than 70%)	0 (Herbicidal rate of 5% or less (almost no effect))	–
CCCC(=O)Oc1c(C)nn(C)c(=O)c1-c1c(-c2ccc3c(c2)OCCO3)sc2cc(OC)ccc12 [3-083]	4 (Herbicidal rate of 70% or more and less than 90%)	5 (Herbicidal rate of 90% or more (almost completely withered))	0 (Herbicidal rate of 5% or less (almost no effect))	4 (Herbicidal rate of 70% or more and less than 90%)	2 (Herbicidal rate of 20% or more and less than 40%)	4 (Herbicidal rate of 70% or more and less than 90%)	0 (Herbicidal rate of 5% or less (almost no effect))	0 (Herbicidal rate of 5% or less (almost no effect))	3 (Herbicidal rate of 40% or more and less than 70%)	4 (Herbicidal rate of 70% or more and less than 90%)	5 (Herbicidal rate of 90% or more (almost completely withered))	1 (Herbicidal rate of 5% or more and less than 20%)	3 (Herbicidal rate of 40% or more and less than 70%)	0 (Herbicidal rate of 5% or less (almost no effect))	2 (Herbicidal rate of 20% or more and less than 40%)	3 (Herbicidal rate of 40% or more and less than 70%)	0 (Herbicidal rate of 5% or less (almost no effect))	–
